Test results published in patent publication US20240301409A1, “Chemically Modified Small Activating RNA” (RACTIGEN THERAPEUTICS, priority 2021, published 2024).
Oligonucleotides are written 5' to 3', each unit as a sugar letter and its base; * is a phosphorothioate linkage, no mark a phosphodiester; rarer units and linkages stand in square brackets, end groups in braces. Plain capitals give the bases only. m = 2'-O-methyl; r = 2'-OH (RNA); f = 2'-fluoro

How the values were obtained:
TNF-α = experiment: PBMC cytokine release assay, TNF-α (ELISA); format: cell-based, human; conditions: 10 nM, 24 hours
Description: Data represent mean±SD of two independent experiments. […] The values below the line indicate suppressed activities.
Each treatment group was analyzed in triplicate.

RNase A = molecular target: T1, RNase A (Bos taurus, UniProt P61823); experiment: saRNA stability analysis in the presence of RNase A (agarose gel); conditions: incubation 0 to 96 hours
T1 sequence (P61823 27-150): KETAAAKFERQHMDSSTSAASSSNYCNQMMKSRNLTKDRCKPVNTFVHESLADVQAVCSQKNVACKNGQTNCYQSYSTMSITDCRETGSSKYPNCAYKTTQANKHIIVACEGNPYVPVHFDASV
Description: The duplexes obtained at each time point above were each added to 1 μL of 10× loading buffer, and then frozen in liquid nitrogen. After incubation, all samples were detected for the double-stranded RNA by 4% agarose gel electrophoresis, and the content of each duplex was analyzed by Image J software.
The duplexes obtained at each time point indicated above were each added to 1 μL of 10× loading buffer, and then frozen in liquid nitrogen. After incubation, all samples were detected for the double-stranded RNA by 4% agarose gel electrophoresis, and the content of each duplex was analyzed by Image J software.
saRNA (1.5 μL, 10 μM) was incubated at a final concentration of 0.02 mg/mL in PBS in the presence of RNase A (Amresco, OH, USA) at 37° C. for different durations. At the end of the incubation, the mixture was snap frozen in liquid nitrogen to stop nuclease activity. Samples were analyzed on a 4% agarose gel and examined for duplex degradation.
All chemically modified duplexes (Rag1-40-1 to Rag1-40-32) were incubated with 0.02 μg/L of RNase A for different durations (0 to 96 hours). At the end of the incubation, the size and amount of duplexes were detected by agarose gel electrophoresis.

[1] = tested on: Rag1-40 target sequence in the 3′ UTR of firefly luciferase, COS-1 cells; experiment: Analysis of off-target effects (pOff-Target dual luciferase reporter in COS-1 cells); conditions: lysed 48 hours after transfection, luciferase activity
Description: A 26 bp fragment comprising the target site of Rag1-40 was cloned in the antisense orientation into the 3′ UTR region of the firefly luciferase gene in a pmirGLO dual luciferase vector. Vector plasmids were co-transfected with the indicated saRNAs into COS-1 cells. Cells were lysed 48 hours after transfection, and the resulting lysates were assessed for luciferase activity. Data represent mean±SD of at least two independent experiments. Dashed line represents comparisons to blank control (top dashed line) and Rag1-40 (bottom dashed line). Values close to the top dashed line indicate no off-target effect.
A 26 bp fragment comprising the Rag1-40 target sequence was cloned in the antisense orientation into a multiple cloning site (MCS) of the 3′ untranslated region of firefly luciferase of the pmirGLO dual luciferase vector (Promega, Fitchburg, WI), to obtain pOff-Target plasmid. Following E. coli transformation and overnight incubation, plasmids for each construct were prepared by standard method. Each plasmid was transfected into COS-1 monkey kidney epithelial cells using Lipofectamine 3000 (Invitrogen, Carlsbad, CA). Subsequently, saRNA was transfected using RNAiMAX. After 24 hours of incubation, COS-1 cells were lysed with 1× lysis buffer, and luciferase activity was measured using dual luciferase reporter gene assay system (Promega, WI, USA) following manufacturer's instructions.
To assess the off-target effects of unmodified and modified saRNAs, a sequence complementary to the sense oligonucleotide strand of Rag1-40 was cloned into the 3′UTR region of the luciferase gene in a pmirGLO dual luciferase vector. The vector plasmid was co-transfected with the saRNA into COS-1 cells. Cells were lysed 48 hours after transfection and the resulting lysates were assessed for luciferase activity.

[2] = Stability of RNA duplex in human urine (agarose gel); conditions: 37° C.
Description: Double-stranded RNA (7.5 μL, 10 μM) diluted in 17.5 μL PBS was incubated with 25 μL human fresh urine at 37° C. for 0, 1, 24 and 48 hours, respectively. The duplexes obtained at each time point indicated above were each added to 1 μL of 10× loading buffer, and then frozen in liquid nitrogen. After incubation, all samples were detected for the double-stranded RNA by 4% agarose gel electrophoresis, and the content of each duplex was analyzed by Image J software.
To further test the stability of the chemically modified double-stranded saRNA in human urine, the duplexes were incubated in urine for different durations ranging from 0 to 48 hours.

INF-α = experiment: PBMC cytokine release assay, INF-α (ELISA); conditions: PBMC, 10 nM, 24 hours
Description: Cells were treated with the indicated duplexes at a final concentration of 10 nM or lipopolysaccharide (LPS) as a positive control for 24 hours, respectively. The levels of INF-α and TNF-α in the cell supernatant were detected by ELISA kit. […] Data represent mean±SD of two independent experiments.
Human peripheral blood mononuclear cells (Allcells, Alameda, CA) were seeded in a 96-well microplate at a density of approximately 10×10^4 cells/well. Transfection of dsRNA was performed using RNAiMAX (Invitrogen, Carlsbad, CA) following manufacturer's instructions. Supernatants were collected 24 hours after transfection and immediately assayed for IFN-α and TNF-α production using ELISA kit (R&D Systems). Each treatment group was analyzed in triplicate.
To assess the immunostimulatory effect of chemically modified saRNAs, human peripheral blood mononuclear cells (PBMC) from healthy donors were incubated with the double-stranded saRNAs, and INF-α and TNF-α levels in the supernatant of treated cells after 24 hours were measured.

Substance: Rag1-40-3: saRNA duplex: sense mCmCAACUCAUUCUCCAAGmUmC (SEQ ID NO 5); antisense fUmAfCfUfUmGmGmAmGmAmAfUmGmAmGfUfUmGmGfCmA (SEQ ID NO 8) (sense mCmCrArArCrUrCrArUrUrCrUrCrCrArArGmUmC)
- immunostimulatory effect (TNF-α induction) compared with Rag1-40, in words (TNF-α): unchanged immunostimulatory activity
- degradation of duplex at 96 hours (RNase A): little or no signs of degradation
- off-target effect compared to unmodified Rag1-40, in words [1]: completely inhibited

Substance: Rag1-40-17: saRNA duplex: sense mCmCAACUCAUUCUCCAAG*U*C (SEQ ID NO 15); antisense fUAfCfUfUGGAGAAfUGAGfUfUGGfCA (SEQ ID NO 6) (sense CCAACUCAUUCUCCAAGUC; antisense UACUUGGAGAAUGAGUUGGCA; 2'-OMe, 2'-F, phosphorothioates; modified_base (1)..(2) (1,2)=2′-O-methyl(2′-OMe); modified_base (17)..(19) (17,18,19)=phosphorothioate (PS) backbone modification; modified_base (1)..(20) (1,3,4,5,12,16,17,20)=2′-fluoro)
- degradation of duplex at 48 hours [2]: no sign of degradation
- degradation of duplex at 96 hours (RNase A): little or no signs of degradation
- off-target effect compared to unmodified Rag1-40, in words [1]: mitigated or similar off-target effects

Substance: Rag1-40-25: saRNA duplex: sense fCfCAACUCAUUCUCCAAG*U*C (SEQ ID NO 16); antisense fUAfCfUfUGGAGAAfUGAGfUfUGGfCA (SEQ ID NO 6) (sense CCAACUCAUUCUCCAAGUC; antisense UACUUGGAGAAUGAGUUGGCA; 2'-F, phosphorothioates; modified_base (1)..(2) (1,2)=2′-fluoro; modified_base (17)..(19) (17,18,19)=phosphorothioate (PS) backbone modification; modified_base (1)..(20) (1,3,4,5,12,16,17,20)=2′-fluoro)
- degradation of duplex at 48 hours [2]: no sign of degradation
- degradation of duplex at 96 hours (RNase A): little or no signs of degradation
- off-target effect compared to unmodified Rag1-40, in words [1]: mitigated or similar off-target effects

Substance: Rag1-40-29: saRNA duplex: sense fCfCAACUCAUUCUCCAAG*U*C (SEQ ID NO 16); antisense UACUfUGGAGAAfUGAGUfUGG*fC*A (SEQ ID NO 10) (sense CCAACUCAUUCUCCAAGUC; antisense UACUUGGAGAAUGAGUUGGCA; 2'-F, phosphorothioates; modified_base (1)..(2) (1,2)=2′-fluoro; modified_base (17)..(19) (17,18,19)=phosphorothioate (PS) backbone modification; modified_base (5)..(20) (5,12,17,20)=2′-fluoro; modified_base (19)..(21) (19,20,21)=phosphorothioate (PS) backbone modification)
- immunostimulatory activity (INF-α) compared with Rag1-40, in words (INF-α): reduced immunostimulatory activity
- degradation of duplex at 48 hours [2]: mostly degraded
- off-target effect compared to unmodified Rag1-40, in words [1]: mitigated or similar off-target effects
